Test results from patent publication US6562783B2, “Phosphinylmethyl and phosphorylmethyl succinic and glutauric acid analogs as β-secretase inhibitors” (Neurologic, Inc., priority 2001, dated 2003).

Tested on: sAPP secretion
Assay: Enhancement of sAPP secretion (immunoblot with 6E10 antibody, densitometry)
Assay type: cell-based, Human
Conditions: compound at 10 μM; FIG. 4
Procedure: Determination of the enhancement of sAPP secretion promoted by LQ-β series of compounds:
Human fibroblasts were obtained from the Coriell Cell Repositories (Camden, N.J.). Four AD cell lines (AG06848, AG04401, AG07377, AG06263) and four age-matched control cell lines (AG07141, AG06241, AG08044, AG04560) were grown to confluence in T75 cell culture flasks. Additional information about these cell lines can be found in the Catalog of Cell Lines from the National Institute of Aging. (National Institute of Aging, Catalog of Cell Lines (1994)). The culture medium was DMEM supplemented with 10% serum (FBS, Gibco). PC12 cells were obtained from the American Cell Culture Collection and grown to confluence in T75 flasks containing DMEM supplemented with 5% FBS (Gibco), 10% horse serum (Biofluids) and 1% of a mixture of penicillin (5,000 units/ml in G sodium) and streptomycin (5,000 μg/ml).
Cells in T-75 were seeded into 100 mm cell culture plates and allowed to grow for 2 days. […]
Conventional immunoblotting techniques were employed. […] Horseradish peroxidase bound signal was detected using an enhanced chemiluminescence followed by exposure to Hyperfilm ECL (Amersham). The band intensities were quantified by densitometric analyses using a BioRad GS-710 Scanning Densitometer and Multianalyst software (BioRad).

O=C(O)CC(CP(=O)(O)O)C(=O)N1CCN(C(=O)OCCOc2ccccc2)CC1 (stereo not shown) [LQ-∃1, 4-(2-Carboxymethyl-3-phosphono-propionyl)-piperazine-1-carboxylic acid 2-phenoxy-ethyl ester]
effect on sAPP secretion compared to vehicle (DMSO) alone: marked effect of enhancing secretion
